Source: patent US20090169472A1, “METHODS AND COMPOSITIONS FOR TREATING IMMUNE DISORDERS” (CANCER RESEARCH TECHNOLOGY LTD., priority 2005, published 2009)
Oligonucleotides are written 5' to 3', each unit as a sugar letter and its base; * is a phosphorothioate linkage, no mark a phosphodiester; rarer units and linkages stand in square brackets, end groups in braces. Plain capitals give the bases only. r = 2'-OH (RNA)

Test system: Flt3L-DC
Experiment: Flt3L-DC activation assay (cytokines in supernatant by sandwich ELISA)
Assay type: cell-based, mouse
Conditions: for IFNα induction by Flt3L-DC compared with polyUs-21 (reference TLR7 ligand): comparison in words; for ability to stimulate TLR7: summary statement on oligonucleotides of Table 1; for levels of IFNα compared with polyUs-21: at higher concentrations; for IFNα production: phosphodiester RNA of undefined length, previous experiments; for fold less potent in inducing IFNα by Flt3L-DC than the 21-mer (polyUo-21): phosphodiester polyU RNA, shift in the dose response
[1] = oligonucleotide/PEI complexes, C57BL/6 Flt3L-DC, overnight culture, result in words

Method: Flt3L-DC were generated from bone marrow cell suspensions in RPMI 1640 medium containing 10% fetal calf serum, 2 mM glutamine, 100 units/ml penicillin, 100 μg/ml streptomycin, 50 μM 2-mercaptoethanol and 50 ng/ml murine Flt3L (R&D systems) and were used at day 10 or 11 of cultures.
For stimulation with oligonucleotides, 2×10^5 Flt3L-DC were seeded in triplicate in 96-well-plates. Oligonucleotides were added and cells were cultured overnight in a final volume of 200 μl. Controls contained medium alone, 0.5 μg/ml CpG 1668, 100 mM loxoribine or 1 μM R848.
For stimulation with oligonucleotides other than CpG 1668, different doses of each test oligonucleotides were diluted in 150 mM NaCl solution and mixed with an equal volume of 150 mM NaCl solution+/−polytheylenimine (PEI; 3 μl/ml PEI were used irrespective of the RNA dose). After 15 min incubation at room temperature, oligonucleotide/PEI complexes were added to cells. Supernatants were collected after 18-20 hr of culture and levels of IFNα, IL-6 and IL-12 p40 were determined by sandwich ELISA.

C=CCn1c(=O)n([C@@H]2O[C@H](CO)[C@@H](O)[C@H]2O)c2nc(N)[nH]c(=O)c21 [loxoribine, reference compound] was tested, and the “IL-6 induction by Flt3L-DC” value (ligands at concentrations of maximum cytokine induction, compared with polyUs-21/PEI) was “better inducers of IL-6 than polyUs-21”.
With “SSD8: phosphorothioate RNA 21-mer CCUUUCCUUUCUUUCCUUUCC, 4x triple U, SEQ ID NO 12 (rC*rC*rU*rU*rU*rC*rC*rU*rU*rU*rC*rU*rU*rU*rC*rC*rU*rU*rU*rC*rC)” the “IFNα induction compared among SSD8, SSD9 and SSD10 (four, three or two uridine triplets)” value (“IFNα induction compared among SSD8” below) (PEI complexes) was “Differences between oligonucleotides SSD8 and SSD9 were only marginal”, the “potency in inducing IFNα, no uridine at the ends (SSD8, SSD14) compared with uridine at the ends (SSD13, SSD15)” value (PEI complexes) was “slightly more potent in inducing IFNα” and the “shift of the dose response, no uridine at the ends (SSD8, SSD14) compared with uridine at the ends (SSD13, SSD15)” value (PEI complexes) was “nearly half a logarithmic scale”. For the same compound, the “IFNα induction by Flt3L-DC compared with polyUs-21 (reference TLR7 ligand)” value (PEI complexes) was “lower levels of IFNα than the 21-mer oligonucleotide consisting entirely of uridine nucleotides” and the “ability to stimulate TLR7” value was “capable of stimulating TLR7”.
For “SSD9: phosphorothioate RNA 21-mer CCCCCCCUUUCUUUCCUUUCC, 3x triple U, SEQ ID NO 13 (rC*rC*rC*rC*rC*rC*rC*rU*rU*rU*rC*rU*rU*rU*rC*rC*rU*rU*rU*rC*rC)”, the “IFNα induction compared among SSD8” value (PEI complexes) was “Differences between oligonucleotides SSD8 and SSD9 were only marginal”, the “IFNα induction by Flt3L-DC compared with polyUs-21 (reference TLR7 ligand)” value (PEI complexes) was “lower levels of IFNα than the 21-mer oligonucleotide consisting entirely of uridine nucleotides” and the “ability to stimulate TLR7” value was “capable of stimulating TLR7”.
“SSD10: phosphorothioate RNA 21-mer CCCCCCCUUUCUUUCCCCCCC, 2x triple U, SEQ ID NO 14 (rC*rC*rC*rC*rC*rC*rC*rU*rU*rU*rC*rU*rU*rU*rC*rC*rC*rC*rC*rC*rC)” was tested, and the “IFNα induction compared among SSD8” value (PEI complexes) was “slightly reduced”, the “IFNα induction by Flt3L-DC compared with polyUs-21 (reference TLR7 ligand)” value (PEI complexes) was “lower levels of IFNα than the 21-mer oligonucleotide consisting entirely of uridine nucleotides” and the “ability to stimulate TLR7” value was “capable of stimulating TLR7”.
With “SSD13: phosphorothioate RNA 21-mer UUUCCCUUUCCCUUUCCCUUU, 4x triple U, SEQ ID NO 15 (rU*rU*rU*rC*rC*rC*rU*rU*rU*rC*rC*rC*rU*rU*rU*rC*rC*rC*rU*rU*rU)” the “ability to stimulate TLR7” value was “capable of stimulating TLR7”.
For “SSD14: phosphorothioate RNA 21-mer CCUUCCUUCCUUCCUUCCUUC, 5x double U, no U at the end, SEQ ID NO 16 (rC*rC*rU*rU*rC*rC*rU*rU*rC*rC*rU*rU*rC*rC*rU*rU*rC*rC*rU*rU*rC)”, the “potency in inducing IFNα, no uridine at the ends (SSD8, SSD14) compared with uridine at the ends (SSD13, SSD15)” value (PEI complexes) was “slightly more potent in inducing IFNα”, the “shift of the dose response, no uridine at the ends (SSD8, SSD14) compared with uridine at the ends (SSD13, SSD15)” value (PEI complexes) was “nearly half a logarithmic scale” and the “ability to stimulate TLR7” value was “capable of stimulating TLR7”.
With “SSD15: phosphorothioate RNA 21-mer UUCCCUUCCCUUCCUUCCCUU, 5x double U with U at the end, SEQ ID NO 17 (rU*rU*rC*rC*rC*rU*rU*rC*rC*rC*rU*rU*rC*rC*rU*rU*rC*rC*rC*rU*rU)” the “ability to stimulate TLR7” value was “capable of stimulating TLR7”.
In the case of “SSD21: phosphorothioate RNA 21-mer CCCCCUUUCUUUCUUUCCCCC, 3x triple U, one C apart, SEQ ID NO 18 (rC*rC*rC*rC*rC*rU*rU*rU*rC*rU*rU*rU*rC*rU*rU*rU*rC*rC*rC*rC*rC)”, the “IFNα levels compared within the group SSD21-SSD25 (three uridine triplets, one to five cytosines apart)” value (PEI complexes) is reported as “induced the highest levels of IFNα in this group of oligonucleotides”, the “IFNα induction by Flt3L-DC compared with polyUs-21 (reference TLR7 ligand)” value (PEI complexes) is reported as “less efficient in IFNα induction than polyUs-21” and the “ability to stimulate TLR7” value is reported as “capable of stimulating TLR7”.
In the case of “SSD22: phosphorothioate RNA 21-mer CCCCUUUCCUUUCCUUUCCCC, 3x triple U, two C apart, SEQ ID NO 19 (rC*rC*rC*rC*rU*rU*rU*rC*rC*rU*rU*rU*rC*rC*rU*rU*rU*rC*rC*rC*rC)”, the “ability to stimulate TLR7” value is reported as “capable of stimulating TLR7”.
With “SSD23: phosphorothioate RNA 21-mer CCCUUUCCCUUUCCCUUUCCC, 3x triple U, three C apart, SEQ ID NO 20 (rC*rC*rC*rU*rU*rU*rC*rC*rC*rU*rU*rU*rC*rC*rC*rU*rU*rU*rC*rC*rC)” the “ability to stimulate TLR7” value was “capable of stimulating TLR7”.
With “SSD24: phosphorothioate RNA 21-mer CCUUUCCCCUUUCCCCUUUCC, 3x triple U, four C apart, SEQ ID NO 21 (rC*rC*rU*rU*rU*rC*rC*rC*rC*rU*rU*rU*rC*rC*rC*rC*rU*rU*rU*rC*rC)” the “ability to stimulate TLR7” value was “capable of stimulating TLR7”.
“SSD25: phosphorothioate RNA 21-mer CUUUCCCCCUUUCCCCCUUUC, 3x triple U, five C apart, SEQ ID NO 22 (rC*rU*rU*rU*rC*rC*rC*rC*rC*rU*rU*rU*rC*rC*rC*rC*rC*rU*rU*rU*rC)” was tested, and the “IFNα induction by Flt3L-DC” value [1] was “hardly any measurable levels of IFNα were induced”.
In the case of “SSD27: phosphorothioate RNA 21-mer CUCUCUCUCUCUCUCUCUCUC, 10x single U, one C apart, SEQ ID NO 23 (rC*rU*rC*rU*rC*rU*rC*rU*rC*rU*rC*rU*rC*rU*rC*rU*rC*rU*rC*rU*rC)”, the “IFNα induction by Flt3L-DC” value [1] is reported as “comparably poor in inducing IFNα”.
For “SSD28: phosphorothioate RNA 21-mer CCCCUUCUUCUUCUUCUUCCC, 5x double U, one C apart, SEQ ID NO 24 (rC*rC*rC*rC*rU*rU*rC*rU*rU*rC*rU*rU*rC*rU*rU*rC*rU*rU*rC*rC*rC)”, the “levels of IFNα compared with polyUs-21” value (PEI complexes) was “comparable to the polyUs-21 oligonucleotide”, the “IFNα induction by Flt3L-DC” value [1] was “very potent in inducing IFNα” and the “ability to stimulate TLR7” value was “capable of stimulating TLR7”.
In the case of “SSD29: phosphorothioate RNA 21-mer CCCCCCUUUUUUUUUUCCCCC, 10x U in a string, SEQ ID NO 25 (rC*rC*rC*rC*rC*rC*rU*rU*rU*rU*rU*rU*rU*rU*rU*rU*rC*rC*rC*rC*rC)”, the “levels of IFNα compared with polyUs-21” value (PEI complexes) is reported as “comparable to the polyUs-21 oligonucleotide”, the “IFNα induction by Flt3L-DC” value [1] is reported as “very potent in inducing IFNα” and the “ability to stimulate TLR7” value is reported as “capable of stimulating TLR7”.
polyA [reference compound] was tested, and the IFNα production was “neither polyA nor polyC phosphodiester RNA of undefined length triggered IFNα production”.
polyC [reference compound] was tested, and the IFNα production was “neither polyA nor polyC phosphodiester RNA of undefined length triggered IFNα production”.
“polyTs-21: polyT RNA 21-mer, phosphorothioate bonds, SEQ ID NO 28 (TTTTTTTTTTTTTTTTTTTTT; RNA, all phosphorothioate, T or U not given here; further chemistry not fully specified)” was tested, and the “IFNα induction by Flt3L-DC” value [1] was “unable to induce measurable levels of IFNα at any of the tested concentrations”.
With “polyUo-10: polyU RNA 10-mer, phosphodiester bonds, SEQ ID NO 4 (UUUUUUUUUU; unmodified RNA)” the “fold less potent in inducing IFNα by Flt3L-DC than the 21-mer (polyUo-21)” value (PEI complexes) was “approximately 20 ×” and the “ability to stimulate TLR7” value was “capable of stimulating TLR7”.
With “polyUo-15: polyU RNA 15-mer, phosphodiester bonds, SEQ ID NO 3 (UUUUUUUUUUUUUUU; unmodified RNA)” the “fold less potent in inducing IFNα by Flt3L-DC than the 21-mer (polyUo-21)” value (PEI complexes) was “approximately 20 ×” and the “ability to stimulate TLR7” value was “capable of stimulating TLR7”.
In the case of “polyUo-21: polyU RNA 21-mer, phosphodiester bonds, SEQ ID NO 2 (UUUUUUUUUUUUUUUUUUUUU; unmodified RNA)”, the “IFNα induction by Flt3L-DC compared with polyUs-21 (reference TLR7 ligand)” value (PEI complexes) is reported as “induced similar IFNα”, the “IFNα induction by Flt3L-DC” value (free oligonucleotide given to culture without PEI) is reported as “failed to induce IFNα” and the “IFNα induction by Flt3L-DC” value [1] is reported as “induced IFNα by Flt3L-DC in a dose dependent manner”. For the same compound, the “ability to stimulate TLR7” value was “capable of stimulating TLR7”.
For “polyUs-15: polyU RNA 15-mer, phosphorothioate bonds, SEQ ID NO 6 (rU*rU*rU*rU*rU*rU*rU*rU*rU*rU*rU*rU*rU*rU*rU)”, the “IFNα induction by Flt3L-DC compared with polyUs-21 (reference TLR7 ligand)” value (PEI complexes) was “indistinguishable from the response obtained with the 21-mer” and the “ability to stimulate TLR7” value was “capable of stimulating TLR7”.
In the case of “polydUo-21: polyU DNA 21-mer (dU), phosphodiester bonds, SEQ ID NO 8 (UUUUUUUUUUUUUUUUUUUUU; listed as RNA, chemistry not fully specified)”, the “potency in inducing IFNα compared with polyUo-21” value (at higher doses, PEI complexes) is reported as “even more potent”, the “potency in stimulating an IFNα response compared with polyUo-21” value (at lower doses, PEI complexes) is reported as “less potent” and the “IFNα induction by Flt3L-DC” value [1] is reported as “produced IFNα”. The “ability to stimulate TLR7” value was “capable of stimulating TLR7”.
In the case of “polydUs-21: polyU DNA 21-mer (dU), phosphorothioate bonds, SEQ ID NO 9 (UUUUUUUUUUUUUUUUUUUUU; DNA, all phosphorothioate, T or U not given here)”, the “ability to stimulate TLR7” value is reported as “capable of stimulating TLR7”.
